pIC50: −log10 of the molar value.
Biological target: human Cat S (Homo sapiens, UniProt P25774)
Assay: Cathepsin enzyme inhibition assay (fluorogenic peptide substrate cleavage)
Assay type: biochemical
Settings: human Cat S 1 nM; substrate Z-Val-Val-Arg-AMC 20 μM; pH 6.5; fluorescence over 20 minutes
Method in brief: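 Fluorogenic cleavage of Z-Val-Val-Arg-AMC (20 μM) by 1 nM enzyme in 100 mM potassium phosphate pH 6.5, 5 mM EDTA, 5 mM DTT, 0.001% Triton X-100. Reaction started with substrate; fluorescence (ex 360/em 465 nm) followed over 20 minutes. IC50 by standard methods.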

human Cat S, sequence (P25774 115-331): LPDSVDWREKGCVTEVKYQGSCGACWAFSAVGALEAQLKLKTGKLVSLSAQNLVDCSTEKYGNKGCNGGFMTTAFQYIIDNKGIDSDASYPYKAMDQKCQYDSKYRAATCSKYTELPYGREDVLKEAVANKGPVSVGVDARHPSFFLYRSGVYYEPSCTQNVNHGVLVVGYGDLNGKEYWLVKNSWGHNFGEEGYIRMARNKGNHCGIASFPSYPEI

Row | Structure (SMILES) | pIC50
1 | CO[C@@H]1C[C@H](S(=O)(=O)c2ccc(-c3cnn(C)c3)cc2C(F)(F)F)C[C@H]1C(=O)NC1(C#N)CC1 (racemic) [Example 66, (1R,2R,4R) and (1S,2S,4S)-2-Methoxy-4-[4-(1-methyl-1H-pyrazol-4-yl)-2-trifluoromethyl-benzenesulfonyl]-cyclopentanecarboxylic acid (1-cyano-cyclopropyl)-amide] | 9.15
2 | Cc1cccc(S(=O)(=O)[C@@H]2C[C@@H](C(=O)NC3(C#N)CC3)[C@H](C(=O)N3CCC(F)(F)C3)C2)c1 [Example 205, (1R,2R,4R)-2-(3,3-Difluoro-pyrrolidine-1-carbonyl)-4-(toluene-3-sulfonyl)-cyclopentanecarboxylic acid (1-cyano-cyclopropyl)-amide] | 9.49
3 | CO[C@@H]1C[C@H](S(=O)(=O)c2ccc(F)cc2Cl)C[C@H]1C(=O)NC1(C#N)CC1 (racemic) [Example 56, (1R,2R,4R) and (1S,2S,4S)-4-(2-Chloro-4-fluoro-benzenesulfonyl)-2-methoxy-cyclopentanecarboxylic acid (1-cyano-cyclopropyl)-amide] | 7.61
4 | Cc1cc(-c2ccc(S(=O)(=O)[C@H]3C[C@@H](OC4CCOCC4)[C@H](C(=O)NC4(C#N)CC4)C3)c(C(F)(F)F)c2)ccn1 (racemic) [Example 174, (1R,2R,4R) and (1S,2S,4S)-4-[4-(2-Methyl-pyridin-4-yl)-2-trifluoromethyl-benzenesulfonyl]-2-(tetrahydro-pyran-4-yloxy)-cyclopentanecarboxylic acid (1-cyano-cyclopropyl)-amide] | 9.77
5 | CC(C)(C)N1CCN(c2ccc(S(=O)(=O)[C@@H]3C[C@@H](C(=O)NC4(C#N)CC4)[C@H](C(=O)N4CC(F)(F)C4)C3)c(Cl)c2)CC1 [Example 160, (1R,2R,4R)-4-[4-(4-tert-Butyl-piperazin-1-yl)-2-chloro-benzenesulfonyl]-2-(3,3-difluoro-azetidine-1-carbonyl)-cyclopentanecarboxylic acid (1-cyano-cyclopropyl)-amide] | 9.78
6 | CC(C)CS(=O)(=O)[C@@H]1C[C@@H](C(=O)NCC#N)[C@H](C(=O)N2CCOCC2)C1 [Example 39, (1R,2R,4R)-4-(2-Methyl-propane-1-sulfonyl)-2-(morpholine-4-carbonyl)-cyclopentanecarboxylic acid cyanomethyl-amide] | 6.35
7 | CCN1CCC(C#N)(NC(=O)[C@@H]2C[C@@H](S(=O)(=O)c3ccc(-c4cnn(C)c4)cc3C(F)(F)F)C[C@H]2OC)CC1 (racemic) [Example 238, (1R,2R,4R) and (1S,2S,4S)-2-Methoxy-4-[4-(1-methyl-1H-pyrazol-4-yl)-2-trifluoromethyl-benzenesulfonyl]-cyclopentanecarboxylic acid (4-cyano-1-ethyl-piperidin-4-yl)-amide] | 8.63
8 | CO[C@@H]1C[C@H](S(=O)(=O)c2ccc(-c3cncc(F)c3)cc2C(F)(F)F)C[C@H]1C(=O)NC1(C#N)CC1 (racemic) [Example 84, (1R,2R,4R) and (1S,2S,4S)-4-[4-(5-Fluoro-pyridin-3-yl)-2-trifluoromethyl-benzenesulfonyl]-2-methoxy-cyclopentanecarboxylic acid (1-cyano-cyclopropyl)-amide] | 9.15
9 | N#CC1(NC(=O)[C@@H]2C[C@@H](S(=O)(=O)c3ccccc3)C[C@H]2C(=O)N2CCC(O)CC2)CC1 [Example 13, (1R,2R,4R)-4-Benzenesulfonyl-2-(4-hydroxy-piperidine-1-carbonyl)-cyclopentanecarboxylic acid (1-cyano-cyclopropyl)-amide] | 9.00
10 | Cn1cc(-c2ccc(S(=O)(=O)[C@@H]3C[C@@H](C(=O)NC4(C#N)CC4)[C@H](C(=O)N4CC(F)(F)C4)C3)c(C(F)(F)F)c2)cn1 [Example 120, (1R,2R,4R)-2-(3,3-Difluoro-azetidine-1-carbonyl)-4-[4-(1-methyl-1H-pyrazol-4-yl)-2-trifluoromethyl-benzenesulfonyl]-cyclopentanecarboxylic acid (1-cyano-cyclopropyl)-amide] | 9.70

— patent publication US20100317647A1 (priority 2009, published 2010)
